The subject of assay [1] is K562 cells. The assay is described as follows: Assay for proliferation inhibitory activity of K562 cells. Format: cell-based. The note with it: Homo sapiens, 72 h, CCK-8, read-out: K562 cell proliferation inhibition IC50. As for the experimental part:
Test Example 4 Assay for Proliferation Inhibitory Activity of K562 Cells
The K562 cell line can be purchased from the American Type Culture Collection (ATCC).
The K562 cells in a good growth state were added to a centrifuge tube with the cell density adjusted to 3×10^4/mL, and seeded on a 96-well plate (100 μL/well). The cells were cultured overnight in a cell incubator, the compound was loaded using a nanoliter pipettor to allow the final compound concentration to be 10000 nM to 4.6 nM, 2 replicate wells were set and control was set.

For assay [2], the target named is T1, KRAS-G12C/SOS1 (Homo sapiens, UniProt Q07889).
T1 sequence (Q07889 564-1049): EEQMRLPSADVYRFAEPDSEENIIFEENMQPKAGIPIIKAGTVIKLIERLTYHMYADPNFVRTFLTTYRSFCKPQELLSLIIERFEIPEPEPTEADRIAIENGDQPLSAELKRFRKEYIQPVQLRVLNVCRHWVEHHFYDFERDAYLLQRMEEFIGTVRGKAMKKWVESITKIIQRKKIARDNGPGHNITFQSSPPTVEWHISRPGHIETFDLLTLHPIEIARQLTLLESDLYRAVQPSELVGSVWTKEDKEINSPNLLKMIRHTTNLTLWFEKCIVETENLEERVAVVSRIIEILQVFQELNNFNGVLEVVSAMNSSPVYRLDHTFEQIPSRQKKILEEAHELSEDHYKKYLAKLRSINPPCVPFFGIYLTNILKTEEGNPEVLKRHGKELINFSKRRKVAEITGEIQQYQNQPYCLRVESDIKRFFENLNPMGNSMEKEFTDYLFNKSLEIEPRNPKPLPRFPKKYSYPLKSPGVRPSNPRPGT
The assay is described as follows: biochemical.

Assay [3] addresses T2, SOS1cat / KRAS G12C (Homo sapiens, UniProt Q07889).
T2 sequence (Q07889 564-1049): T1 sequence (Q07889 564-1049)
The assay is described as follows: Guanine nucleotide exchange test (HTRF). Format: biochemical. The note with it: SOS1cat-mediated loading of EDA-GTP-DY-647P1 on His-KRAS G12C, 20° C.; read-out: Nucleotide conversion of HTRF IC50. As for the experimental part: Test Example 2 Guanine Nucleotide Exchange Test
This test quantitatively investigates the ability of SOS to mediate KRAS activation. KRAS G12C with a His tag was added to the system, anti-His antibody labeled with lanthanide Eu was combined with the system, then auxiliary protein SOS1cat and GTP analogue EDA-GTP-DY-647P1 with fluorophore were added thereto, the GTP analogue with fluorophore was loaded on KRAS G12C with the assistance of the auxiliary protein, and then energy resonance transfer occurred between Anti-6HS-Cryptate (FRET donor) and EDA-GTP-DY-647P1 (FRET acceptor).
However, after pretreatment with SOS1 inhibitor compounds, the ability of SOS1 to bind and mediate KRAS activation was weakened, and the ability of FRET between donor and acceptor was weakened.
Test buffer was prepared with the following components: HEPES pH 7.4: 20 mM; NaCl: 150 mM; MgCl2: 0.5 mM; DTT: 2 mM; BSA: 0.05%; and Igepal: 0.0025%.
KRAS G12C working solution, SOS1cat working solution and blank control solution were prepared with the test buffers; wherein the KRAS G12C working solution contained 100 nM His-KRAS G12C and 2 nM […]; the SOS1cat working solution contained 20 nM SOS1cat and 200 nM EDA-GTP-DY-647P1; and the blank control solution contained 100 nM EDA-GTP-DY-647P1.
The whole test procedures were completed at 20° C.
In general terms: In TR-FRET formats the signal depends on donor and acceptor labels being close together.

Each structure is given as a SMILES string.

In the case of `Cc1nc(N[C@H](C)c2cccc(C(F)(F)F)c2F)c2cc(P3(=O)CCN(S(C)(=O)=O)CC3)ncc2n1` [Example 19], the IC50 in assay [1] stood at 0.206 µM; in assay [2], 0.041 µM.

Consider `Cc1nc(N[C@H](C)c2cccc3c2OCC3(F)F)c2cc(P3(=O)CCN(S(C)(=O)=O)CC3)ncc2n1` [Example 22], for which the IC50 in assay [1] came to 0.836 µM; in assay [2], 0.063 µM.

As to `Cc1nc(N[C@H](C)c2cccc(C(C)(F)F)c2F)c2cc(P3(=O)CCN(S(C)(=O)=O)CC3)ncc2n1` [Example 23], the IC50 in assay [3] was 0.283 µM; in assay [1], 0.118 µM.

For the molecule `C[C@@H](Nc1nc(CF)nc2cnc(P3(=O)CCN(S(C)(=O)=O)CC3)cc12)c1cccc(C(F)(F)F)c1F` [Example 24], the IC50 in assay [1] was found to be 0.177 µM.

Take `[2H]C(C)(Nc1nc(C)nc2cnc(P3(=O)CCN(S(C)(=O)=O)CC3)cc12)c1cccc(C(F)(F)F)c1F` (stereo not drawn) [Example 25]: the IC50 in assay [1] worked out at 0.247 µM; in assay [2], 0.086 µM.

In assay [2], `Cc1nc(N[C@H](CF)c2cccc(C(F)(F)F)c2C)c2cc(P3(=O)CCN(S(C)(=O)=O)CC3)ccc2n1` [Example 26] displayed an IC50 of 0.103 µM.

Turning to `COc1cc2ncnc(N[C@H](C)c3cccc(C(F)F)c3F)c2cc1P1(=O)CCN(C(C)=O)CC1` [Example 28], the IC50 came out at 0.239 µM in assay [1] and 0.05 µM in assay [2].

In the case of `COc1cc2ncnc(N[C@H](C)c3cccc(C(F)F)c3F)c2cc1P1(=O)CCN(S(C)(=O)=O)CC1` [Example 29], the IC50 came out at 0.32 µM in assay [1] and 0.063 µM in assay [2].

In the case of `COc1cc2nc(CF)nc(N[C@H](C)c3cccc(C(F)F)c3F)c2cc1P1(=O)CCN(C(C)=O)CC1` [Example 30], the IC50 in assay [1] stood at 0.302 µM; in assay [2], 0.068 µM.

Consider `CC(=O)N1CCP(=O)(c2ccc3nc(CF)nc(N[C@H](C)c4cccc(C(F)F)c4F)c3c2)CC1` [Example 31], for which the IC50 in assay [1] stood at 0.513 µM; in assay [2], 0.129 µM.

For the molecule `CC(=O)N1CCP(=O)(c2cc3c(N[C@H](C)c4cccc(C(F)F)c4F)nc(CF)nc3cc2F)CC1` [Example 32], the IC50 in assay [1] was found to be 0.155 µM; in assay [2], 0.09 µM.

In the case of `CC(=O)N1CCP(=O)(c2ccc3nc(Cl)nc(N[C@H](C)c4cccc(C(F)F)c4F)c3c2)CC1` [Example 33], the figures for the IC50 in assay [1] and in assay [2] were 0.25 µM and 0.064 µM, respectively.

For `CCP(=O)(CC)c1cc2c(N[C@H](C)c3cccc(C(F)F)c3F)nc(C)nc2cc1OC` [Example 34], in assay [2], the IC50 worked out at 0.612 µM.

As to `Cc1nc(N[C@H](C)c2cccc(C(F)F)c2F)c2cc(P3(=O)CCOCC3)ncc2n1` [Example 35], the IC50 in assay [1] was determined as 0.574 µM; in assay [2], 0.156 µM.

`Cc1nc(N[C@H](C)c2cccc(C(F)F)c2F)c2cc(P3(=O)CCOCC3)ccc2n1` [Example 36]: the IC50 in assay [1] came to 0.346 µM; in assay [2] it was 0.094 µM.

As for `Cc1nc(N[C@H](C)c2cccc(C(F)(F)F)c2F)c2cc(P3(=O)CCOCC3)ccc2n1` [Example 37], the IC50 in assay [1] was found to be 0.362 µM; in assay [2], 0.097 µM.

Regarding `Cc1nc(N[C@H](C)c2cccc(C(F)F)c2F)c2cc(P3(=O)CCOCC3)c(F)cc2n1` [Example 38], the IC50 came out at 0.477 µM in assay [1] and 0.115 µM in assay [2].

As for `Cc1nc(N[C@H](C)c2cccc(C(F)F)c2F)c2cc(P3(=O)CCOCC3)cc(F)c2n1` [Example 39], the IC50 in assay [1] turned out to be 0.561 µM; in assay [2], 0.103 µM.

For the molecule `Cc1nc(N[C@H](C)c2cccc(C(F)(F)F)c2C)c2cc(P3(=O)CCOCC3)c(=O)n(C)c2n1` [Example 40], the IC50 in assay [1] is 0.514 µM; in assay [2], 0.179 µM.

For the molecule `Cc1nc(N[C@H](C)c2cccc(C(F)(F)F)c2F)c2cc(P3(=O)CCOCC3)nc(C#N)c2n1` [Example 41], the IC50 in assay [1] was found to be 0.57 µM; in assay [2], 0.18 µM.

On to `Cc1nc(N[C@H](C)c2cc(N)cc(C(F)(F)F)c2)c2cc(P(C)(C)=O)c(O)cc2n1` [Example 44], for which the IC50 in assay [3] amounted to 0.724 µM.

In the case of `Cc1nc(N[C@H](C)c2cc(N)cc(C(F)(F)F)c2)c2cc(P(C)(C)=O)c(OC(F)F)cc2n1` [Example 45], the values for the IC50 in assay [3] and in assay [1] were 0.694 µM and 1.08 µM, respectively.

On to `Cc1nc(N[C@H](C)c2cc(N)cc(C(F)(F)F)c2)c2cc(P(C)(C)=O)c(OCF)cc2n1` [Example 46], for which the IC50 is 0.498 µM in assay [3] and 0.491 µM in assay [1].

In the case of `[2H]C([2H])([2H])Oc1cc2nc(C)nc(N[C@H](C)c3cc(N)cc(C(F)(F)F)c3)c2cc1P(C)(C)=O` [Example 47], the IC50 was 0.573 µM in assay [3] and 0.44 µM in assay [1].

On to `COCCN1CCP(=O)(c2cc3c(N[C@H](C)c4cccc(C(F)(F)F)c4)nc(C)nc3cn2)CC1` [Example 48], for which the IC50 in assay [3] is 0.895 µM; in assay [1], 1.57 µM.

Take `Cc1nc(N[C@H](C)c2cccc(C(F)(F)F)c2)c2cc(P3(=O)CCN(C)CC3)ncc2n1` [Example 49]: the IC50 was determined as 1.47 µM in assay [3] and 2.15 µM in assay [1].

`Cc1nc(N[C@H](C)c2cccc(C(C)(F)F)c2F)c2cc(P3(=O)CCN(CC4CC4)CC3)ncc2n1` [Example 50]: the IC50 in assay [3] turned out to be 0.456 µM; in assay [1], 0.334 µM.

On to `Cc1nc(N[C@H](C)c2cccc(C(F)F)c2F)c2cc(P3(=O)CCN(C4COC4)CC3)ncc2n1` [Example 51], for which the IC50 was found to be 0.282 µM in assay [1] and 0.1 µM in assay [2].

In the case of `Cc1nc(N[C@H](C)c2cccc(C(F)F)c2F)c2cc(P3(=O)CCN(C(=O)N(C)C)CC3)ncc2n1` [Example 55], the IC50 is 0.28 µM in assay [1] and 0.087 µM in assay [2].

`Cc1nc(N[C@H](C)c2cccc(C(F)F)c2F)c2cc(P3(=O)CCN(CC#N)CC3)ccc2n1` [Example 56]: the IC50 in assay [1] came out at 0.507 µM; in assay [2], 0.088 µM.

Take `Cc1nc(N[C@H](C)c2cccc(C(F)F)c2F)c2cc(P3(=O)CCN(CC(=O)N(C)C)CC3)ccc2n1` [Example 57]: the IC50 worked out at 2.17 µM in assay [1] and 0.204 µM in assay [2].

With `Cc1nc(N[C@H](C)c2cccc3c(F)coc23)c2cc(P3(=O)CCN(S(C)(=O)=O)CC3)ccc2n1` [Example 61], the IC50 was 0.421 µM in assay [1] and 0.063 µM in assay [2].

Turning to `Cc1nc(N[C@H](C)c2cccc(C(F)(F)F)c2C)c2cc(P3(=O)CCN(S(C)(=O)=O)CC3)ccc2n1` [Example 62], the IC50 in assay [1] worked out at 0.155 µM; in assay [2] it was 0.045 µM.

Turning to `COc1cc2nc(C)nc(N[C@H](C)c3cccc(C(F)F)c3F)c2cc1P1(=O)CCN(S(C)(=O)=O)CC1` [Example 63], the IC50 is 0.137 µM in assay [1] and 0.038 µM in assay [2].

Turning to `C[C@@H](Nc1ncnc2cnc(P3(=O)CCN(S(C)(=O)=O)CC3)cc12)c1cccc(C(C)(F)F)c1F` [Example 64], the values for the IC50 in assay [1] and in assay [2] were 0.281 µM and 0.064 µM, respectively.

`COc1cc2nc(C)nc(N[C@H](C)c3cccc(C(F)F)c3C)c2cc1P1(=O)CCOCC1` [Example 66]: the IC50 in assay [1] is 0.271 µM; in assay [2], 0.079 µM.

On to `COc1cc2nc(C)nc(N[C@H](C)c3cccc(C(F)(F)F)c3C)c2cc1P1(=O)CCOCC1` [Example 67], for which the figures for the IC50 in assay [1] and in assay [2] were 0.264 µM and 0.071 µM, respectively.

In the case of `COc1cc2nc(C)nc(N[C@H](C)c3cccc(C(F)(F)F)c3F)c2cc1P1(=O)CCOCC1` [Example 68], the IC50 in assay [1] was determined as 0.72 µM; in assay [2], 0.09 µM.

For `COc1cc2nc(C)nc(N[C@H](C)c3cccc(C(C)(F)F)c3F)c2cc1P1(=O)CCOCC1` [Example 69], the IC50 was determined as 0.31 µM in assay [1] and 0.049 µM in assay [2].

As to `COc1cc2nc(C)nc(N[C@H](C)c3cccc(C(F)(F)CO)c3)c2cc1P1(=O)CCOCC1` [Example 70], the IC50 came out at 0.257 µM in assay [1] and 0.044 µM in assay [2].

In the case of `COc1cc2nc(C)nc(N[C@H](C)c3cccc(C(F)(F)C(C)(C)O)c3)c2cc1P1(=O)CCOCC1` [Example 71], the IC50 was 0.139 µM in assay [1] and 0.035 µM in assay [2].

Values taken from US12565511B2, “SOS1 inhibitor containing phosphorus” (Chia Tai Tianqing Pharmaceutical Group Co., Ltd., priority 2020, dated 2026).
